Results: patent US20260207768A1, “NOVEL LINKER DRUGS COMPRISING PHOSPHOANTIGENS, NOVEL CONJUGATES AND THEIR USE IN THERAPY” (priority 2022, published 2026)

How the values were obtained:
NK-cells = settings: shown in WO2023/275025; cited from earlier work
[1] = tested on: Vdelta2 gammadelta T-cells; experiment: Functional assay: Vdelta2 gammadelta T-cell activation (CD107a, IFNγ) after co-culture of PBMCs with pretreated Raji cells; assay type: cell-based, human; design: key to IFNγ production by Vdelta2 populations, EC50: †: incomplete curve saturation (no EC50 calculation possible); ††: low number of IFNγ-positive cells, no reliable EC50 calculation possible; settings: Donor two; Raji cells pre-treated overnight, 6 hours coculture with PBMCs
Procedure: Multiple synthesized linker drug compounds were conjugated to rituximab (anti-CD20) and resulting ADCs were tested for their ability to bind Raji cells and to activate Vdelta2 gammadelta T-cells after overnight incubation with CD20-positive Raji cells. The linker drug compounds that were conjugated to rituximab, and resulting ADCs, are within the list reflected in Table 1. The pretreated Raji cells were cocultured with peripheral blood mononuclear cells (PBMCs) and activation (IFNγ production) and degranulation (CD107a) of Vdelta2 gammadelta T-cells and NK-cells was determined using multicolor flow cytometry.
For stimulation with ADCs according to the invention, Raji cells were harvested, diluted to a concentration of 5×10^6 cells/mL and 50 μL (equivalent to 250,000 cells/well) of this cell suspension was seeded into a 96-well plate. […] The recovered PBMCs were harvested, counted and diluted to a concentration of 10×10^6 cells/mL in CGM, and 50 μL/well (equivalent to 0.5×10^6 cells/well) was added to the Raji cells. […]

[2] = tested on: CD20-positive Burkitt's Lymphoma human tumor cell line Raji; experiment: Cellular binding to Raji cells (flow cytometry, MFI); settings: 30 minutes at 4° C.
Procedure: The CD20-positive Burkitt's Lymphoma human tumor cell line Raji (DSMZ, the German collection of Microorganisms and cell cultures GmbH) was used for in vitro experiments. Raji cells were cultured in complete growth medium (CGM): RPMI-1640 (Lonza) supplemented with 10% Heat-inactivated (HI) Fetal Bovine Serum (FBS) (Gibco) and 80 U/mL Penicillin-Streptomycin solution (Lonza). Raji cells were maintained at 37° C. in a humidified incubator containing 5% CO2 and sub-cultured twice a week. […] Fluorescence intensities were determined by flow cytometry using the NovoCyte (Agilent) and determined as the median fluorescence intensity (MFI). […] EC50 values were calculated in GraphPad Prism as the concentration in μg/mL that gives a response halfway between bottom and top of the curve. […]
These ADCs were tested for their ability to bind Raji cells (using a binding assay, as described in Example 5) and to activate Vdelta2 gammadelta T-cells after overnight incubation with CD20-positive Raji cells. The pretreated Raji cells were cocultured with peripheral blood mononuclear cells (PBMCs) and activation (IFNγ production) and degranulation (CD107a) of Vdelta2 gammadelta T-cells and NK-cells was determined using multicolor flow cytometry, as described for the Functional assay in Example 5.

- CD107a production by Vdelta2 populations, EC50 [1]: 0.094 µg/mL
- IFNγ production by Vdelta2 populations, EC50 [1]: ††
- EC50 binding to Raji cells [2]: 3.30 µg/mL
Substance: Rituximab: anti-CD20 antibody rituximab [reference compound]
- Activation of NK-cells (in words) (NK-cells): induced activation of NK-cells
